The results in this text go back to US6872727B1, “Polycyclic pyrimidine -2,4(1H,3H)-diones with functionalized alkyl residues at the 1- and/or 3-position(s); methods for their synthesis and pharmaceutical preparation” (Privates Institut fur Biomedizinische Forschung und Beratung, priority 1999, dated 2005).

The target of assay [1] is Clostridium histolyticum collagenase (EC 3.4.24.3). The assay can be described thus: Inhibition of Clostridium histolyticum collagenase, spectrophotometric FALGPA assay. To be noted: chromogenic substrate FALGPA; read-out: C. histolyticum (50% inhibition). It counts as biochemical. From the text:
The activity of Clostidium histolyticum collagenase may be readily determined by a simple spectrophotometric assay using the synthetic chromogenic peptide substrate N-(3-[2-furyl]acryloyi)-leucine-glycine-proline-alanine (FALGPA; Van Hart, H. E. and Steinbrink, D. R. 1981, Anal. Biochem. 113, 356). The degree of inhibition of the degradation of this chromogenic substrate by the addition of the various test substances described in Table 1 may be easily quantified. The enzyme and substrate are commercially available.

In assay [2] the target is T1, human matrix metalloproteinase-9 (MMP-9; gelatinase B) (Homo sapiens, UniProt P14780).
T1 construct: from tissue; host or cells: human buffy coat (blood leukocytes)
T1 sequence (P14780 107-707 limits assumed): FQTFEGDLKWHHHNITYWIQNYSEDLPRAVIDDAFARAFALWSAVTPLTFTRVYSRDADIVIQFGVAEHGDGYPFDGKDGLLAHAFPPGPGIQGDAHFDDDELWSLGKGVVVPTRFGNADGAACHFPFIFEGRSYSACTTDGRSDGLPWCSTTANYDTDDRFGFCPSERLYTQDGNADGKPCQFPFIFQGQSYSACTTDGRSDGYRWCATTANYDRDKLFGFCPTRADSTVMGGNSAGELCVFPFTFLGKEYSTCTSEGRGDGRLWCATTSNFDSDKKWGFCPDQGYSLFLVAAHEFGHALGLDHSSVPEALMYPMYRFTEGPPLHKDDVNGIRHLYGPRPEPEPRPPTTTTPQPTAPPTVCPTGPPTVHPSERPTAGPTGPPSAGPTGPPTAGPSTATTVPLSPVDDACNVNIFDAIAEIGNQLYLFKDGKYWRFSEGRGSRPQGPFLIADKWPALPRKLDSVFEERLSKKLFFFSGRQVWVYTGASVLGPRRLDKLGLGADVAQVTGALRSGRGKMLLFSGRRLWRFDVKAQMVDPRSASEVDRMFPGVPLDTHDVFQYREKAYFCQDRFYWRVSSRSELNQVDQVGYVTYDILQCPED
The assay can be described thus: Inhibition of human matrix metalloproteinase-9 (gelatinase B). To be noted: trypsin-activated native MMP-9 from human buffy coat; for IC50: read-out: MMP-9 (50% inhibition). In kind it is biochemical. As for the experimental part: Native MMP-9 was reproducibly obtained with reasonable yield and purity from human buffy coat. Buffy coat, to which was added an appropriate volume of 10% (v/v) Triton-X-100 to obtain a final concentration of 0,4% detergent, was shaken on ice for 30 min; then, one volume of twofold-concentrated binding buffer (40 mM Tris-HCl pH 7,5, 10 mM CaCl2, 1 M NaCl, 0,2% (v/v) Triton X-100 was added and the mixture shaken on ice for a further 30 min.
The mixture was then centrifuged for 15 min at 16,000 rpm (30,590×g) in a Kendro SS-34 rotor at 4° C. and the resulting supernatant filtered over glass wool. The filtrate was incubated batchwise with gelatin-agarose equilibrated in binding buffer for 1 h on ice with continuous shaking The MMP-9-bound gelatin-agarose was then loaded into a chromatographic tube and the column washed with at least ten bed volumes of binding buffer, or until no protein was detected by absorbance at 280 nm in the wash buffer. MMP-9 was eluted from the gelatin affinity column by application of two bed volumes of binding buffer containing 5% (v/v) dimethylsulfoxide (DMSO).
The eluate was applied to a gel filtration column of Sephadex G-75 both to exchange buffer and to eliminate small amounts of contaminating MMP-2. The G-75 column was prepared and eluted with Buffer I [20 mM Tris-HCl pH 7,5, 5 mM CaCl2, 100 mM NaCl, 0,1% (v/v) Triton X-100].
The eluted MMP-9 includes the three characterized forms of the enzyme: monomer, homodimer, and heterodimer (complex with lipokalin). The purity of MMP-9 was estimated to be ca. 90%, with the remaining contaminating protein being fibronectin and small amounts of TIMPS.
The latent MMP-9 was activated by a 30-60 min incubation at 37° C. with 1/100 vol trypsin (10 mg ml^−1). The trypsin was subsequently inactivated by addition of the serine proteinase inhibitor phenlymethylsulfonylfluoride (PMSF) or the more specific trypsin inhibitor TLCK.
The enzymatic cleavage of commercially available synthetic internally quenched fluorigenic peptide substrates such as 7-methylcoumarin-4-yl-acetyl-prolyleucyl-glycyl-leucyl-(dinitrophenyl-L-α,β-diaminopropionyl)-alanyl-arginylamide (Mca-Pro-Leu-Gly-Leu-Dap(Dnp)-Ala-Arg-NH2) at the scissile -Gly-Leu-peptide bond separates the fluorescent Mca group from the dinitrophenol quencher, resulting in a strong linear increase in fluorescence intensity that can be readily measured in a fluorimeter (λexitation328 nm, λemission 393 nm) over the first few minutes of the reaction. The specificity of the assay for matrix metalloproteinases is provided by the type I collagen-derived sequence -Pro-Leu-Gly-Leu- in the synthetic substrate, as well as by the incubation conditions. To test the efficacy of the synthetic collagenase/MMP inhibitors, the residual enzymatic activity remaining after an incubation of enzyme plus different amounts of inhibitor is measured at a fixed enzyme and substrate concentration. For each inhibitor, three test series at different fixed substrate concentrations were carried out. From the time-dependent increase in fluorescence intensity measured, the velocity (v) of the enzymatic activity can be calculated as increase in arbitrary fluorescence intensity units per minute. The inhibition constant Ki is calculated graphically by the method of Dixon (1953) by plotting the reciprocal of the reaction velocity 1/v on the ordinate, and the inhibitor concentration on the abscissa. The x-intercept of the linear plot is defined as minus K1 value.
1984 μl assay buffer (100 mM Tris-HCl pH 7,5, 100 mM NaCl, 10 mM CaCl2, 0,05% Brij 35) • 2 μl inhibitor dissolved in DMSO, or DMSO alone as a solvent control • 4 μl enzyme (MMP-2, MMP-9, or the catalytic domain of MMP-8) • 10 μl Mca-Pro-Leu-Gly-Leu-Dap(Dnp)-Ala-Arg-NH2 in DMSO Method • 1. Incubate buffer, enzyme, and inhibitor for 5 min at room temperature, with stirring. • 2. Start the reaction by adding 10 μl substrate in DMSO • 3. Record the increase in fluorescence intensity over 2 min. […]

Consider `O=c1[nH]c(=O)n(CCS)c2ccccc12` [Example 5, 1-(2-mercaptoethyl)-chinazolin-2,4(1H,3H)-dione], for which the IC50 in assay [1] worked out at 39.2 µM; in assay [2], 12.5 µM.

As for `Cn1c(=O)c2sccc2n(CCS)c1=O` [Example 17, 1-(2-mercaptoethyl)-3-methyl-thieno[3,2-d]-pyrimidine-2,4(1H,3H)-dione], in assay [2], the IC50 is 10 µM.

For the molecule `CC(CCS)n1c(=O)[nH]c2ccccc2c1=O` (racemic) [Example 18, (R,S)-3-[3-(1-methyl)-mercaptopropyl]-chinazolin-2,4(1H,3H)-dione], the IC50 in assay [2] worked out at 10 µM.

For `Cn1c(=O)c2sccc2n(CCCS)c1=O` [Example 14, 1-(3-mercaptoprop-1-yl)-3-methyl-thieno(3,2-d)-pyrimidin-2,4(1H,3H)-dione], in assay [2], the IC50 was 50 µM.

For the molecule `O=c1[nH]c2ccccc2c(=O)n1CCCCS` [Example 12, 3-(4-mercaptobut-1-yl)-chinazolin-2,4(1H,3H)-dione], in assay [2], the IC50 came to 20 µM.

As to `Cn1c(=O)c2ccccc2n(CCCS)c1=O` [Example 7, 1-(3-mercaptoprop-1-yl)-3-methyl-chinazolin-2,4(1H,3H)-dione], the results for the IC50 in assay [1] and in assay [2] were 11.5 µM and 71.4 µM, respectively.

With `O=c1[nH]c(=O)n(CCCS)c2ccccc12` [Example 4, 1-(3-mercaptopropyl)-chinazolin-2,4(1H,3H)-dione], the IC50 in assay [1] turned out to be 53.8 µM; in assay [2], 6 µM.

For `CC(S)CCn1c(=O)[nH]c(=O)c2ccccc21` (racemic) [Example 3, (R,S)-1-(3-mercaptobut-1-yl)-chinazolin-2,4(1H,3H)-dione], the IC50 in assay [1] was found to be 27.5 µM. Besides, the “MMP-9 (50% inhibition)” value in assay [2] was “negative”.
